Results on two compounds are retold here after US7109323B2, “Formulation of boronic acid compounds” (The United States of America as represented by the …, priority 2001, dated 2006).

Holding throughout (assay type): physicochemical
Data set [1] is described as follows: dynamic vapor sorption studies. To be noted: crystalline product.
Data set [2] can be described thus: reconstitution / dissolution of the formulation in aqueous solvents. As to conditions: 0.9% w/v saline, saline or isotonic, thermodynamic from solid; read-out: solubility (concentration dissolved). As for the experimental part: One sample was reconstituted with 2 mL of water. Dissolution was complete within 1-2 minutes of shaking. The entire solution was transferred to a volumetric flask, diluted, and analyzed by HPLC for content of N-(2-pyrazine)carbonyl-L-phenylalanine-L-leucine boronic acid. The total drug content was 1.09 mg. A second sample was reconstituted with 1 mL of propylene glycol:EtOH:H2O, 40:10:50. Dissolution was complete with 1 minute of shaking. The total drug content was 1.11 mg.
The lyophilized formulation was also reconstituted with 0.9% w/v saline. The lyophilized material dissolved readily at concentrations up to 6 mg/mL.
(§1) The lyophilized product was prepared according to Example 1, and samples (2.5 mg/vial) were reconstituted with 2.5 mL of 0.9% w/v sterile saline. […] No special care was taken to protect the solution from light.

Data set [3] is described as follows: storage stability determined by HPLC analysis. The protocol:
The product was obtained as a white amorphous powder. The product was stable for more than 2 years when stored at −20° C., as determined by HPLC analysis (purity >97%). When stored at 2-8° C., the product was not stable for longer than 3-6 months.
When stored at 2-8° C., the liquid formulation was not stable for longer than 6 months, as determined by HPLC analysis.
The lyophilized product was prepared according to Example 1 and stored at 5° C., ambient temperature, 37° C., and 50° C. Stability was monitored for approximately 18 months by periodically reconstituting a sample and analyzing the entire contents of the bottle by HPLC.
as §1

A value given as a limit tells only on which side of the number the result lay.

As for `CC(C)C[C@H](NC(=O)[C@H](Cc1ccccc1)NC(=O)c1cnccn1)B1OB([C@H](CC(C)C)NC(=O)[C@H](Cc2ccccc2)NC(=O)c2cnccn2)OB([C@H](CC(C)C)NC(=O)[C@H](Cc2ccccc2)NC(=O)c2cnccn2)O1` [N-(2-pyrazine)carbonyl-L-phenylalanine-L-leucine boroxine], in data set [1], the hygroscopicity result is on record as “non-hygroscopic”.

With `CC(C)C[C@H](NC(=O)[C@H](Cc1ccccc1)NC(=O)c1cnccn1)B(O)O` [N-(2-pyrazine)carbonyl-L-phenylalanine-L-leucine boronic acid], in data set [2], the solubility was less than 1000 µg/mL. Besides, the “time stable on storage” value in data set [3] (stored at 2-8° C., HPLC analysis) was 3-6 months; in data set [3] (stored at −20° C., HPLC analysis (purity >97%)) it was “more than 2 years”.
